These results are taken from publication PMC9100779, “Simple and Expedient Access to Novel Fluorinated Thiazolo- and Oxazolo[3,2-a]pyrimidin-7-one Derivatives and Their Functionalization via Palladium-Catalyzed Reactions” (Molecules, 2022).

This assay addresses T1, human monoamine oxidase A (hMAO-A) (Homo sapiens, UniProt P21397).
T1 construct: gene MAOA
T1 sequence (P21397 1-527): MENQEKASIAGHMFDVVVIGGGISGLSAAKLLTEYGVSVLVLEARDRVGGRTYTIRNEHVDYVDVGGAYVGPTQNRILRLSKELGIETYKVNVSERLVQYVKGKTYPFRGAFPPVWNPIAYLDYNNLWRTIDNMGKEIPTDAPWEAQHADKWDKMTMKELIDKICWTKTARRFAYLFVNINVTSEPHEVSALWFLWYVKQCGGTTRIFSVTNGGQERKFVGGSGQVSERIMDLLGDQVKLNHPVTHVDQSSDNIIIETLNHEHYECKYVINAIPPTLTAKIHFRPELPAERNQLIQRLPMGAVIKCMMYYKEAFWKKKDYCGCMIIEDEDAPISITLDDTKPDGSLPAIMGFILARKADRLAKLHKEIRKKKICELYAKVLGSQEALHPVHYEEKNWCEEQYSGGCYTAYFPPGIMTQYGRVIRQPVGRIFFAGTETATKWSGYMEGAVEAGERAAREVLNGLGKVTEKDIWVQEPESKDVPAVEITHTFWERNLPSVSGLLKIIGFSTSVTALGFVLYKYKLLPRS
In words: in vitro hMAO-A enzyme inhibition assay with p-tyramine as substrate, serial dilution. It is filed as biochemical.

Broadly, the IC50 is the concentration that inhibits the measured activity by half. Read a low IC50 as inhibition by little substance. Molecule `O=c1cc(C(F)(F)c2ccc(Br)cc2)n2cc(Br)sc2n1` [3g, 2-Bromo-5-[(4-bromophenyl)difluoromethyl]-7H-thiazolo[3,2-a]pyrimidin-7-one] yielded an IC50 of 54.1 µM. In other words, the double-digit micromolar range.
